# In publication PMC9219824, “Antiplasmodial Cyclodecapeptides from Tyrothricin Share a Target with Chloroquine” (Antibiotics, 2022):
# Read-outs that look alike come from different tables or passages of the source. Square brackets hold non-standard residues; d marks the D form. Peptide text beside a SMILES is read from it. Orn = NCCC[C@H](N)C(=O)O
# Tests used:
# [1] = system: human erythrocytes; test: Hemolytic activity; assay type: cell-based; settings: 2% hematocrit, 1 h at 37 °C, ± SEM
# Method: To determine the hemolytic activity of the peptides, the duplicate 96-well plates with samples added to 90 μL 2% hematocrit per well were incubated for one hour at 37 °C and centrifuged using a swing-out rotor at 200× g for 3 min. The supernatant was diluted 1:8 in analytical quality water in separate 96-well plates and after mixing, the absorbance of the suspension was determined at 405 nm.
# The data obtained from spectrophotometric measurement of the plates following the lactate dehydrogenase (Malstat) assay were converted to percentage growth inhibition using the data analysis method described by Rautenbach et al.. The background was obtained from control wells in which the parasites were killed with 100 µM GS while total growth was from the wells that were not submitted to peptides. The background for the hemolysis evaluation was from wells in which the uninfected erythrocytes were lysed using 100 µM GS while growth control was from the wells with uninfected erythrocytes that received no peptides. The percentage COS-1 cell death (CellTiter Blue™ assay) was similarly calculated from absorbance values. All the dose–response assay data were evaluated using GraphPad Prism 4.03 (GraphPad Software, San Diego, CA, USA) followed by non-linear regression and sigmoidal curves were fitted (having variable slope and a constant difference of 100 between the top and bottom plateau). Following calculation of the 50% P. falciparum inhibitory concentration (IC50), 50% hemolytic concentration (HC50) and 50% lethal concentration (LC50) for COS-1 cells.
# [2] = system: CQI P. falciparum D10; settings: for nature of CQ-peptide interaction: at the lowest CQ ratio, D10
# Method: In order to determine the nature of Trc-CQ interaction, IC50 values were derived from dose–response curves of fixed ratios of Trc and CQ for fractional inhibition concentration (FIC) determination according to an adaptation of the methods by Chawira and Warhust and Fivelman et al..
# CQ at […] (2.0 µM) and 500.0 μM peptide were used to prepare doubling and quadrupling dilution ranges, respectively in supplemented RPMI-1640 culture medium used for culturing the P. falciparum, but lacking albumax II. These were then mixed in an chequerboard fashion to determine the 1:0; 0:1 1;1, 1:2; 1:5 and 1:10 ratios of CQ:peptide for combined IC50s. The CQ, peptide or drug:peptide combination (10 μL) was added to 90 μL of the cell suspensions, incubated for 48 h at 37 °C under an atmosphere of 3% CO2, 4% O2 and 93% N2 and analyzed for growth inhibition as previously described using the Malstat assay. The IC50 values and standard error of the mean for the various CQ-peptide combinations were determined from the dose–response curves plotted and analyzed using GraphPad Prism® 4.03 (GraphPad Software, San Diego, CA, USA). A minimum of three technical repeats and three biological repeats were carried out for each combination experiment.
# Two fractional inhibition concentration (FIC) values were calculated for each of the five CQ-peptide combination ratios, one for CQ and the other for the peptide according to Equations (1) and (2) below from Bell:FICCQ = IC50([CQ] in combination)/IC50CQ ([CQ] alone)(1) FICPeptide = IC50 ([Peptide] in combination)/IC50Peptide ([Peptide] alone)(2)
# The FIC values were used to compute the FIC index which is the sum of FICs of CQ and each peptide using Equation (3) below:FIC index = FICCQ + FICpeptide(3)
# The magnitude of the FICI determined the nature of the CQ-peptide interaction as being either synergistic (FICI < 1.0), antagonistic (FICI > 1.0) or additive (FICI = 1.0) 64–66. […] The shape of the isobolograms also provided an indication of the nature of the interactive effect of CQ and the peptides with a concave curve for synergy, a linear line for an additive to non-interactive effect or convex curve for antagonism with deviation of the curves from the additivity line indicating the strength of the interactive effect.
# [3] = system: P. falciparum D10; test: Super-resolution structured illumination fluorescence microscopy (SR-SIM) of parasite morphology; assay type: cell-based, Plasmodium falciparum
# Method: Prior to staining for fluorescence microscopy, the cultures were centrifuged at 300× g for 4 min, then the supernatant was discarded and cells were suspended to the same percentage hematocrit in a solution made of one part analytical quality water and three parts sterile PBS (pH 7.2–7.3) in order to reduce solute concentration.
# The fluorescence microscopy involved staining suspended cultures (TpcC treated and untreated) prepared as described above (except for not being synchronized within the last 48 h of culturing) with combinations of trypan blue (red fluorescence) and either SYTO® 9 green-fluorescent nucleic acid stain or LipidTOX™ neutral lipid stain (green fluorescence). To view the neutral lipids, the cells were stained with LipidTOX™ (stock solution dilution at 1:200), incubated for 30 min at room temperature before staining with trypan blue at final concentration of 0.002% v/v. For nucleic acid staining, the cells were stained with SYTO® 9 (stock solution dilution at 1:1000) and trypan blue at final concentration of 0.002% v/v and incubated at room temperature for 15 min. Super-resolution structured illumination (SR-SIM) fluorescence microscopy was carried out as follows: thin ([…]) z-stacks of high-resolution image frames were accumulated in 5 rotations using an alpha Plan-Apochromat 100×/1.46 oil DIC M27 ELYRA objective, employing an ELYRA S.1 (Carl Zeiss Microimaging) microscope equipped with a 488 nm laser (100 mW), 561 nm laser (100 mW) and Andor EM-CCD camera (iXon DU 885). Images were […] using ZEN software (black edition, 2011, version 7.04.287) based on a structured illumination algorithm. Image projections and animations were carried out on reconstructed super-resolution images in ZEN.
# [4] = system: P. falciparum D10; test: Parasite stage distribution, Giemsa staining and light microscopy; assay type: cell-based, Plasmodium falciparum; settings: 200 nM, synchronized trophozoite stage cultures, 0 to 48 h
# Method: For light microscopy, following addition of TpcC, aliquots were collected from the cultures at different time-points for preparation of Giemsa-stained blood smears. The assay was carried out in duplicate and lactate dehydrogenase activity of the residual cultures was determined after 48 h.
# [5] = CQ:peptide ratio 1:2 at IC50, D10
# [6] = CQ:peptide ratio 1:5 at IC50, D10
# [7] = CQ:peptide ratio 1:10 at IC50, D10
# [8] = CQ:peptide ratio 1:1 at IC50, D10
Structure (SMILES),"HC50, Erythrocytes [1]","CQ FIC [2, 5]","CQ:Peptide FIC Index [2, 5]","Peptide FIC [2, 5]","CQ FIC [2, 6]","CQ:Peptide FIC Index [2, 6]","Peptide FIC [2, 6]","CQ FIC [2, 7]","CQ:Peptide FIC Index [2, 7]","Peptide FIC [2, 7]",nature of CQ-peptide interaction [2],permeabilization or lysis of parasite and erythrocyte membranes (trypan blue leakage) ([3]; lethal concentration of 200 nM),chromatin morphology (SYTO9 nuclear staining) ([3]; post 6 h treatment),"neutral lipid structures (LipidTOX stain) ([3]; trophozoite stage cultures, after 5 h in culture)",effect on parasite stage progression [4],"CQ FIC [2, 8]","CQ:Peptide FIC Index [2, 8]","Peptide FIC [2, 8]","CQ:Peptide FIC Index ([2]; CQ:peptide ratio 1:1 at IC50, D10, listed as Tyrocidine A)"
"CC(C)C[C@@H]1NC(=O)[C@H](CCCN)NC(=O)[C@H](C(C)C)NC(=O)[C@H](Cc2c[nH]c3ccccc23)NC(=O)[C@H](CCC(N)=O)NC(=O)[C@H](CC(N)=O)NC(=O)[C@@H](Cc2c[nH]c3ccccc23)NC(=O)[C@H](Cc2c[nH]c3ccccc23)NC(=O)[C@@H]2CCCN2C(=O)[C@@H](Cc2ccccc2)NC1=O [TpcC, tryptocidine C] (cyclo(L[dF]PW[dW]NQWV[Orn]))",9.1 ± 1.5 (4) μM,0.36 ± 0.07,1.26 ± 0.36,0.90 ± 0.40,0.23 ± 0.08,1.47 ± 0.28,1.24 ± 0.26,0.08 ± 0.03,1.02 ± 0.17,0.93 ± 0.16,additive activity,none of the parasite membranes or erythrocyte membrane was permeabilized or lysed,abnormality in the packing or compactness of the chromatin,the lipid structures were distorted and diffused,delay in the occurrence of the schizont stage,–,–,–,–
"CC(C)C[C@@H]1NC(=O)[C@H](CCCN)NC(=O)[C@H](C(C)C)NC(=O)[C@H](Cc2ccccc2)NC(=O)[C@H](CCC(N)=O)NC(=O)[C@H](CC(N)=O)NC(=O)[C@@H](Cc2ccccc2)NC(=O)[C@H](Cc2ccccc2)NC(=O)[C@@H]2CCCN2C(=O)[C@@H](Cc2ccccc2)NC1=O [PhcA, phenycidine A] (cyclo(FV[Orn]L[dF]PF[dF]NQ))",7.1 ± 1.6 (8) μM,–,–,–,–,–,–,–,–,–,synergistic action,–,–,–,–,–,–,–,–
"CC(C)C[C@@H]1NC(=O)[C@H](CCCN)NC(=O)[C@H](C(C)C)NC(=O)[C@H](Cc2ccc(O)cc2)NC(=O)[C@H](CCC(N)=O)NC(=O)[C@H](CC(N)=O)NC(=O)[C@@H](Cc2ccccc2)NC(=O)[C@H](Cc2ccccc2)NC(=O)[C@@H]2CCCN2C(=O)[C@@H](Cc2ccccc2)NC1=O [TrcA, tyrocidine A] (cyclo(V[Orn]L[dF]PF[dF]NQY))",–,0.66 ± 0.02,1.60 ± 0.20,0.95 ± 0.18,–,–,–,0.13 ± 0.10,1.35 ± 0.37,1.21 ± 0.29,–,–,–,–,–,1.77 ± 0.29,> 3,1.99 ± 0.36,3.76 ± 0.65
